In BindingDB's records for doi:10.7270/Q28K77GS (University of Pittsburgh, 2007):

Biological target: T1, Dual specificity protein phosphatase 1 (Homo sapiens, UniProt P28562)
T1 sequence (P28562 whole entry): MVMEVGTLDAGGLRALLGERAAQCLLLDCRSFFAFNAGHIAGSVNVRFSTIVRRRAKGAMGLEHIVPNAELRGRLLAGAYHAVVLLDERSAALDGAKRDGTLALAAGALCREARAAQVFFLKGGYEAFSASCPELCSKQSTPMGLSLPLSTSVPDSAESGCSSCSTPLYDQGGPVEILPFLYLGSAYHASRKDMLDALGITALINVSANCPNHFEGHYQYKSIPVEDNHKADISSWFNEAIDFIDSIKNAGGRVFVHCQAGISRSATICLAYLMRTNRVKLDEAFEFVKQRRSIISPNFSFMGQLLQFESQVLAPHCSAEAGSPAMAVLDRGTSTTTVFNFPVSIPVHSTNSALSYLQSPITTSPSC
Assay: MKP-1 phosphatase inhibitors, dose response, biochemical, probe assessment (AID 674)

| Structure (SMILES) | IC50 |
| --- | --- |
| O=C(Nc1ccc2nc(-c3ccco3)c(-c3ccco3)nc2c1)N1CCCCCC1 | > 50 µM |
| Cc1ccc2c(c1C)NC(C(=O)O)C1CC=CC21 (stereo not drawn) | 42.5 µM |
| O=C(O)C1Nc2c(O)cccc2C2C=CCC12 (stereo not drawn) | > 50 µM |
| Cn1ncnc2c(=O)n(C)c(=O)nc1-2 | 0.423 µM |
| [O-]/[N+](=C\c1ccncc1)c1ccccc1 | > 50 µM |
| COc1cccc2c(C)c(C(=O)O)[nH]c12 | > 50 µM |
| O=C1C=Cc2ccccc2C1=O [1,2-dihydronaphthalene-1,2-dione] | > 50 µM |
| CCn1nc(-c2ccccc2)nc2c(=O)n(C)c(=O)nc1-2 [1-Ethyl-6-methyl-3-phenyl-1H-pyrimido[5,4-e][1,2,4]triazine-5,7-dione] | 0.485 µM |
| [O-]/[N+](=C\c1ccc(OC(F)F)cc1)c1ccccc1 [1-[4-(difluoromethoxy)phenyl]-N-phenylmethanimine oxide] | > 50 µM |
| CCn1nc(-c2cccs2)nc2c(=O)n(C)c(=O)nc1-2 [1-ethyl-6-methyl-3-thiophen-2-yl-pyrimido[5,4-e][1,2,4]triazine-5,7-dione] | 0.333 µM |
| O=C1Cc2ccccc2C(=O)N1CCc1ccccc1 [2-(2-phenylethyl)-4H-isoquinoline-1,3-dione] | > 50 µM |
| N#Cc1c(N)sc(=S)c2c1CCN(Cc1ccccc1)C2 [3-Amino-7-benzyl-1-thioxo-5,6,7,8-tetrahydro-1H-thiopyrano[3,4-c]pyridine-4-carbonitrile] | 2.38 µM |
| Cc1ccccc1Nc1cc2ccccc2c(O)n1 [3-[(2-methylphenyl)amino]-2H-isoquinolin-1-one] | 8.75 µM |
| COc1ccc(Br)cc1C=c1sc2nc(-c3ccco3)nn2c1=O [5-[(5-bromanyl-2-methoxy-phenyl)methylidene]-2-(furan-2-yl)-[1,3]thiazolo[3,2-b][1,2,4]triazol-6-one] | 7.02 µM |
| CC(=O)Nc1cc(OC(C)=O)c2nonc2c1OC(C)=O [Acetic acid 7-acetoxy-5-acetylamino-benzo[1,2,5]oxadiazol-4-yl ester] | > 50 µM |
| c1ccc(CSc2nnc(-c3ccco3)c(-c3ccco3)n2)cc1 [MLS-0029114.0001] | > 50 µM |
| Cc1ccc2c(c1)C1C=CCC1C(C(=O)O)N2 (stereo not drawn) [MLS-0067149.0001] | > 50 µM |
| O=C(NC1(O)C(=O)c2ccccc2C1=O)c1ccccc1 [N-(2-hydroxy-1,3-dioxo-2-indenyl)benzamide] | > 50 µM |
| Nc1cccc2cnccc12 [isoquinolin-5-amine] | > 50 µM |

Next, values leading:

| IC50 | Structure (SMILES) |
| --- | --- |
| > 50 µM | CCOC(=O)C(C(=O)OCC)c1cc(Br)c2noc3c2c1C(=O)c1ccccc1-3 [MLS000038842] |
| 10.7 µM | Oc1nc(Nc2ccccc2)cc2ccccc12 [MLS000043701] |
| > 50 µM | O=C1C=Cc2ccccc2/C1=C/NC12CN3CCN(CN(C3)C1)C2 [MLS000071484] |
| 43.8 µM | Cc1c(N=c2c(=O)c3ccccc3c2=O)c(=O)n(-c2ccccc2)n1C [MLS000105950] |
| > 50 µM | CCOc1ccc2noc3c2c1C(=O)c1ccccc1-3 [MLS000106837] |
| > 50 µM | COc1ccc2noc3c2c1C(=O)c1ccccc1-3 [MLS000106874] |
| > 50 µM | COc1cccc2c1NC(C(=O)O)C1CC=CC21 (stereo not drawn) [SMR000009698] |
| 4.61 µM | O=C(OC1CCCCC1)c1ccc2c(c1)C1C=CCC1C(C(=O)O)N2 (stereo not drawn) [SMR000019385] |
| 14.6 µM | N#Cc1c(N2CCCC2)nc(N)c2c(N)nc(N3CCCC3)cc12 [SMR000061605] |
